Measurements from patent US12544375B2, “Small molecule therapeutic for parkinson's disease paired with a biomarker of therapeutic activity” (The Board of Trustees of the Leland Stanford Junior …, priority 2019, dated 2026).

System: iPSC-derived dopaminergic neurons from PD patients
Test: Antimycin A stress-induced neurodegeneration of iPSC-derived dopaminergic neurons (TH, PI staining)
Format: cell-based, human
Conditions: 5 μM for 30 hrs, 10 μM Antimycin A for 6 hrs, neurons from both PD patients
Procedure: FIG. 3A-FIG. 3D. Miro1 Reducer Rescues Parkinson's Neurodegeneration. (FIG. 3A) Fibroblasts were treated, lysed, and blotted as indicated. Band intensities are normalized to those of ATP5β from the same blots and compared to “Healthy-2, no treatment”. n=4. (FIG. 3B-FIG. 3C) iPSC-derived neurons were treated as indicated and immunostained with anti-TH (FIG. 3B) or stained with PI and Dapi (FIG. 3C). Both Antimycin A and Miro1 Reducer were dissolved in ethanol. Neurons were pretreated with Miro1 Reducer 24 hrs before the application of Antimycin A for another 6 hrs. The same volume of ethanol was applied at the same time in negative controls. (FIG. 3B) The density of TH-positive neurons is calculated in each condition under 20×, from 10 fields each experiment, 3-4 experiments. […] (FIG. 3C) The percentage of PI-positive cells out of total cells (Dapi-positive) is calculated. n=20 fields each experiment, 4 experiments. For (FIG. 3B-FIG. 3C), comparisons with “Wild-type-I, no treatment” except otherwise indicated. […] Graphs of Mean±S.E.M show the percent of time each mitochondrion is in motion (red and blue, compared to “Wild-type-I, before treatment”), and the mitochondrial intensity normalized to that of the same axonal region at “0 min” and expressed as a fraction of the mean of “Wild-type-I, 0 min”. n=33-77 mitochondria from 5-8 axons from 5-8 separate transfections. […]

With `O=C(Nc1ccc(Nc2cc(-n3ccnc3)ncn2)cc1)Nc1cccc(F)c1` [Miro1 Reducer] the “stress-induced neurodegeneration of dopaminergic neurons” value was “completely rescued”.
